The conditions of data set [1]: in vivo; cited from earlier work.
A short description of data set [2]: Acute toxicity (LD50) in mouse. Conditions: in vivo.
The subject of another data set is circulating system. Conditions: cited from earlier work.
The subject of a further data set is patients. As to conditions: conventional use; cited from earlier work.
The test system of a further data set is Harmalin-induced tremor. Conditions: in vivo; cited from earlier work.
Data set [3] concerns patients with urinary incontinence. As to the kind of experiment: Clinical test of L-threo-DOPS in patients with urinary incontinence (clinical effect and side effects). In kind it is in vivo, human. The procedure: L-Threo-DOPS was administered (100 mg×3 times, a 4 weeks) to 13 patients with urinary incontinence in the clinic of urology. For estimating the effect on urinary incontinence and side effects, the patients were investigated medically before and after the treatment with L-Threo-Dops. […] Further, by urodynamic study, the patients were classified into urgent urinary incontinence (7 patients), stress urinary incontinence (3 patients) and other condition (3 patients).

For the next data set, the system named is urinary bladder. Description: Inner pressure of urinary bladder and urethra measured before and after administration (urodynamics). Format: in vivo, human. As to conditions: some cases.
For data set [4], the system named is aromatic L-amino acid decarboxylase. Conditions: cited from earlier work.
[5] abbreviates: all 13 patients, 100 mg×3 times, 4 weeks.
The mark [6] stands for this setting: all of the cases, summary statement.

Protocol for urinary bladder: L-Threo-DOPS was administered (100 mg×3 times, a 4 weeks) to 13 patients with urinary incontinence in the clinic of urology. For estimating the effect on urinary incontinence and side effects, the patients were investigated medically before and after the treatment with L-Threo-Dops. The patients were 6 males and 7 females in the range of 35 to 76 years old, and were 51.8 years old in average. Further, by urodynamic study, the patients were classified into urgent urinary incontinence (7 patients), stress urinary incontinence (3 patients) and other condition (3 patients).

Consider `N[C@H](C(=O)O)[C@H](O)c1ccc(O)c(O)c1` (relative stereo) [DL- or L-threo-DOPS, DL- or L-threo-3-(3,4-dihydroxyphenyl)serine], for which, in data set [1], the “Conversion into 1-NA after administration” value is “gradually converted into 1-NA”; the Distribution after administration result is “distributed both centrally and peripherally”.

The LD50 is the dose expected to kill half of the subjects tested. Lower therefore signals a more toxic substance. Take `N[C@H](C(=O)O)[C@H](O)c1ccc(O)c(O)c1` (relative stereo) [active ingredient, DL- or L-threo-3-(3,4-dihydroxyphenyl)serine]: the LD50 in data set [2] (ip, intraperitoneal) was around 10000 mg/kg; in data set [2] (oral), at least 10000 mg/kg.

Take `NC[C@H](O)c1ccc(O)c(O)c1` [1-NA, 1-noradrenaline]: the Duration entry with circulating system (after injection) is “shorter, rather instantaneous”. Also, the “Effects on circulating system” value in the data set with circulating system (immediately after injection) is “drastic effects on circulating system to cause hypertension and palpitation”.

Consider `CN(C)CCCN1c2ccccc2CCc2ccccc21` [Imipramine], for which, in the data set with patients, the Side effects result is “side effects such as thirst, constipation and nasal obstruction”.

For the compound `N[C@H](C(=O)O)[C@H](O)c1ccc(O)c(O)c1` [L-threo-DOPS, L-threo-3-(3,4-dihydroxyphenyl)serine], the “Action on Harmalin-induced tremor” value in the data set on Harmalin-induced tremor was “inhibitory action on Harmalin-induced tremor”. Further, the Side effect entry is “None” in data set [3] (Case 1, 300 mg/day × 4 weeks); “None” in data set [3] (Case 2, 300 mg/day × 4 weeks); “None” in data set [3] (Case 3, 300 mg/day × 4 weeks); “None” in data set [3] (Case 4, 300 mg/day × 4 weeks); “None” in data set [3] (Case 5, 300 mg (3) × 4 weeks); “None” in data set [3] (Case 6, 300 mg (3) × 4 weeks). Also, the Side effect result in data set [3] (Case 7, 300 mg (3) × 4 weeks) is “None”; in data set [3] (Case 8, 300 mg (3) × 4 weeks), “None”; in data set [3] (Case 9, 300 mg/day × 4 weeks), “None”; in data set [3] (Case 10, 300 mg/day × 4 weeks), “None”; in data set [3] (Case 11, 300 mg/day × 4 weeks), “None”; in data set [3] (Case 12, 300 mg/day × 4 weeks), “None”. In addition, the Side effect entry in data set [3] (Case 13, 300 mg/day × 4 weeks) is “None”. The Clinical effect result in data set [3] (Case 7, urgent urinary incontinence, 300 mg (3) × 4 weeks) is listed as “improved”; in data set [3] (Case 8, stress incontinence, 300 mg (3) × 4 weeks), “improved”; in data set [3] (Case 9, stress incontinence, 300 mg/day × 4 weeks) it was “Improved”; in data set [3] (Case 13, Enuresis, 300 mg/day × 4 weeks), “Improved”. Moreover, the “Cases with disappearance of the symptoms or improvement to a moderate degree or more, total” value in data set [3] (setting [5]) amounted to 9 cases. Besides, the “Remaining cases in which L-threo-DOPS was almost ineffective” value in data set [3] (setting [5]) is recorded as 4 cases. Further, the “Side effects such as urine discharge disturbance, palpitation and hypertension” value in data set [3] (all cases, 100 mg×3 times, 4 weeks) is listed as “not noted”. In data set [3] (setting [6]), the Side effects result is “no side effects were noted”. In data set [3] (setting [6]), the Tendency of dysuria result is reported as “even tendency of dysuria was not noted”. Also, the “Cases with clinical effect of more than a slight improvement” value in data set [3] (all patients, 100 mg×3 times, 4 weeks) was 10 out of 13. For the same compound, the “Cases with disappearance of the symptoms or improvement to a moderate degree or more” value in data set [3] (other condition, 100 mg×3 times, 4 weeks) is 2 out of 3; in data set [3] (stress urinary incontinence, 100 mg×3 times, 4 weeks), 2 out of 3; in data set [3] (urgent urinary incontinence, 100 mg×3 times, 4 weeks) it was 5 out of 7. Besides, the Patient satisfaction result in data set [3] (patients improved, 100 mg×3 times, 4 weeks) is recorded as “highly satisfactory”. Further, the “Effect on urinary incontinence” value in data set [3] (summary statement) is listed as “excellent effect on urinary incontinence”. The “Volume of the urinary bladder” value with urinary bladder is given as “increased volume of the urinary bladder was confirmed”. The “Decarboxylation by aromatic L-amino acid decarboxylase to natural 1-noradrenaline” value in data set [4] was “undergo decarboxylation by the action of aromatic L-amino acid decarboxylase to produce natural 1-noradrenaline”.

Source of the values: patent US5266596A, “L- or DL-threo-3-(3,4-dihydroxyphenyl)serine for the treatment of urinary incontinence” (priority 1991, dated 1993).
